In patent publication US20060194800A1, “Pteridine derivatives as nitric oxide synthase activators” (University of Strathclyde, priority 2005, published 2006):
Entries after “also recorded” stand apart in the source; their conditions may differ.

What was measured:
rat lungs = assay: Calcium ionophore-induced pulmonary vasodilation in perfused lungs of rats treated with WSG1002; assay type: in vivo; conditions: 14.1 mg/kg/day s.c.
Method: Rats were maintained in a chamber containing atmospheric air at 550 mbar for 14 days.
A group of normotensive and a group of pulmonary hypertensive rats received daily subcutaneous injections of WSG1002 in a dose of 14.1 mg/kg/day during the time that they were in the hypoxic chamber. Other groups of normotensive and pulmonary hypertensive rats had no drugs and are used as control comparison groups. These studies used lungs from the four groups of rats (1) pulmonary hypertensive and treated with WSG1002, (2) normotensive and treated with WSG1002, (3) pulmonary hypertensive and not treated with WSG1002 (4) normotensive and not treated with WSG1002.
The rats lungs were perfused at constant flow through the pulmonary artery with measurement of perfusion pressure and maintained at 37° C. […]
The lungs were precontracted with the thromboxane A2 mimetic, 9,11-dideoxy-11α,9α-epoxymethanoprostaglandin F2α (U46619, 3×10^−5 M) given as a bolus dose via an injection port. […] Following return to 20% O2, the lungs were precontracted again with a bolus dose of U46619 and relaxation responses to the endothelium-dependent vasorelaxant, calcium ionophore were measured by adding it in increasing doses to the perfusate. The data was plotted as concentration-response curves from which IC50 values were calculated using Biograph program by fitting the curves to the Hill equation y=RMax/(1+(x/EC50)ˆP).

eNOS = eNOS immunostaining in endothelium of small pulmonary arteries of treated rats; assay type: in vivo, rat; conditions: 14.1 mg/kg/day s.c.
Method: Rats were maintained in a chamber containing atmospheric air at 550 mbar for 14 days. […] A group of normotensive and a group of pulmonary hypertensive rats received daily subcutaneous injections of WSG1002 in a dose of 14.1 mg/kg/day during the time that they were in the hypoxic chamber. Other groups of normotensive and pulmonary hypertensive rats had no drugs and are used as control comparison groups. These studies used lungs from the four groups of rats (1) pulmonary hypertensive and treated with WSG1002, (2) normotensive and treated with WSG1002, (3) pulmonary hypertensive and not treated with WSG1002 (4) normotensive and not treated with WSG1002. The rat lungs were fixed with 4% formaldehyde, wax embedded, and 3 μm thick sections were cut. The sections were mounted on silanated slides, rehydrated and treated with 0.3% H2O2 to block endogenous peroxidase activity. Antigens were unmasked by treatment in a microwave oven. […] In the endothelium, the intensity of staining was quantified on a scale of 0-3, where 0=no staining or the same as the negative control, 1=faint staining or staining in a few target cells, 2=moderate staining in most target cells, 3=the maximum staining observed with that antibody in the positive control slides.

rat aorta = assay: BH4 depleted (DAHP) rat aorta relaxation; conditions: DAHP 10^-2 M for 6 h, tetrahydrobiopterin depleted
Method: Rat pulmonary artery or aorta rings (as above) were placed in 15 ml tubes containing 2-3 ml of MEM (minimal essential medium) solution containing 0.1% bovine serum albumin, 100 U/ml penicillin and […] streptomycin. Some of the tubes in addition received diamino-hydroxy-pyrimidine (DAHP) 10^−2 M, an inhibitor of GTP cyclohydrolase, the rate-limiting step in tetrahydrobiopterin synthesis. The tubes were incubated at 37° C. for six hours. […] After the incubation with DAHP or the control incubation with the medium (MEM) alone, the rings were removed and then their relaxation in response to the analogue (or solvent NH4OH) was tested as above. Dose response curves of DAHP-treated tissues were compared to the control tissues treated in MEM alone for 6 hrs. The results are shown graphically in FIGS. 3 and 4. The above procedures were used to mimic cardiovascular disease, by treating aorta and pulmonary artery rings with an inhibitor of the enzyme GTP cyclohydrolase, which is the rate-limiting step in the formation of tetrahydrobiopterin by cells. Treatment with this inhibitor, DAHP, for 6 hours reduced endogenous tetrahydrobiopterin levels in arteries to 4% of the normal content. […] This was found in both pulmonary artery and aorta (FIGS. 3 and 4). […] The only effect seen was a contraction—the opposite to the action of WSG1002—at the highest concentration of tetrahydrobiopterin. […]

rat pulmonary artery = assay: BH4 depleted (DAHP) rat pulmonary artery relaxation
Method: Rat pulmonary artery or aorta rings (as above) were placed in 15 ml tubes containing 2-3 ml of MEM (minimal essential medium) solution containing 0.1% bovine serum albumin, 100 U/ml penicillin and […] streptomycin. Some of the tubes in addition received diamino-hydroxy-pyrimidine (DAHP) 10^−2 M, an inhibitor of GTP cyclohydrolase, the rate-limiting step in tetrahydrobiopterin synthesis. The tubes were incubated at 37° C. for six hours. […] After the incubation with DAHP or the control incubation with the medium (MEM) alone, the rings were removed and then their relaxation in response to the analogue (or solvent NH4OH) was tested as above. Dose response curves of DAHP-treated tissues were compared to the control tissues treated in MEM alone for 6 hrs. The results are shown graphically in FIGS. 3 and 4. […] Thus WSG1002 is acting to enhance the ability of the endothelium to form NO and is not acting merely as a NO donor. The above procedures were used to mimic cardiovascular disease, by treating aorta and pulmonary artery rings with an inhibitor of the enzyme GTP cyclohydrolase, which is the rate-limiting step in the formation of tetrahydrobiopterin by cells. Treatment with this inhibitor, DAHP, for 6 hours reduced endogenous tetrahydrobiopterin levels in arteries to 4% of the normal content. […] This was found in both pulmonary artery and aorta (FIGS. 3 and 4). […] The only effect seen was a contraction—the opposite to the action of WSG1002—at the highest concentration of tetrahydrobiopterin. […] WSG1002 has an EC50 of approximately 10 nM.

Structure (SMILES): CC(=O)C1=Nc2c(nc(N)[nH]c2=O)NC1(C)C [wsg1002, 6-Acetyl-2-amino-7,7-dimethyl-7,8-dihydro-3H-pteridin-4-one]
- IC50 for calcium ionophore relaxation (rat lungs; normotensive rats, untreated 1.5 μM): 1100 nM
- IC50 for calcium ionophore relaxation (rat lungs; pulmonary hypertensive (hypoxic) rats, untreated 1.7 μM): 1200 nM
- eNOS staining in small pulmonary artery endothelium (eNOS; normotensive rats): increased staining for eNOS
- eNOS staining in small pulmonary artery endothelium (eNOS; pulmonary hypertensive rats vs treated normotensive): no further increase
- relaxation of rat aorta rings (rat aorta): significant and physiologically important vasodilatation; also recorded: significant relaxation
- relaxation of rat pulmonary artery rings (rat pulmonary artery; DAHP 10^-2 M for 6 h, tetrahydrobiopterin depleted): significant and physiologically important vasodilatation; also recorded: substantial relaxation
- relaxation of pulmonary artery ring in presence of L-NAME (rat pulmonary artery; L-NAME 100 μM, same result in normal and DAHP-treated rings): no relaxation
- EC50 (rat pulmonary artery; Rattus norvegicus, DAHP-treated artery rings, tissue not specified): ~10 nM
